In patent publication US9713615B2, “Tetrahydroisoquinolin-2-yl-(quinazolin-4-yl)methanone compounds” (Rexahn Pharmaceuticals, Inc., priority 2013, dated 2017):

Assays:
[1] = test system: MDA-MB-231 (breast); experiment: SRB growth inhibition assay, MDA-MB-231; format: cell-based, Human; conditions: Homo sapiens, MDA-MB-231, 96 hours incubation, read-out: Inhibition of cell growth (IC50, μM) MDA-MB-231
From the text: (§1) Cancer cells used in this study to determine the effect of tetrahydroisoquinolin-2-yl-(quinazolin-4-yl)methanone compounds were obtained from the following sources: Human OVCAR-3 (ovary), SK-MEL-28 (melanoma), MDA-MB-231 (breast), HeLa (cervix), PC3 (prostate), HepG2 (liver), A549 (lung), Caki-1 (kidney), HCT116 (colon) and PANC-1 (pancreas) from the American Type Culture Collection (ATCC) (Manassas, Va.); U251 (brain) from Riken (Japan); MKN-45 (stomach) from DSMZ (Germany). All cell lines except MDA-MB-231, HCT116, Caki-1 and PANC-1 were grown in RPMI1640 medium (Invitrogen, Carlsbad, Calif.) supplemented with 10% fetal bovine serum (“FBS”), 1 mM sodium pyruvate, 10 mM HEPES and 100 U/ml penicillin and 100 μg/ml streptomycin (“P/S”). MDA-MB-231, HCT116, Caki-1 and PANC-1 cells were maintained in Dulbecco's modified Eagle's medium (“DMEM”, Invitrogen) supplemented with 10% FBS, P/S, 10 mM HEPES and 2 mM L-glutamine. All cells were incubated at 37° C. under humidified 5% CO2.
(§2) The growth inhibition of the tetrahydroisoquinolin-2-yl-(quinazolin-4-yl)methanone compounds against a variety of human tumor cells was evaluated to study the relative importance of particular substituent groups on the compounds. The tetrahydroisoquinolin-2-yl-(quinazolin-4-yl)methanone compounds, prepared as described above, were tested with DMSO as a control.
(§3) The growth inhibition assay of representative tetrahydroisoquinolin-2-yl-(quinazolin-4-yl)methanone derivatives against human tumor cell lines was performed using the Sulforhodamine B (“SRB”) method (Skehan et al., J. National Cancer Institute, 82: 1107-1112 (1990)). Briefly, exponentially growing tumor cells were seeded into a 96-well plate at a density of 2-3×10^3 cells/well and treated with tetrahydroisoquinolin-2-yl-(quinazolin-4-yl)methanone compounds the next day. Triplicate wells were used for each treatment. The cells were incubated with the various compounds for 96 hours at 37° C. in a humidified 5% CO2 atmosphere. After 96-hour incubation, cells were fixed with 10% trichloroacetic acid (“TCA”), incubated for 1 hour at 4° C., and washed 3 times with tap water. Subsequently, cells were stained with 0.4% sulforhodamine B in 1% acetic acid for 30 minutes, washed 4 times with 1% acetic acid, and air-dried again After 5 minutes agitation in 10 mM Tris solution, the absorbance of each well was measured at 530 nm using Benchmark Plus Microplate reader (Bio-Rad Laboratories, Hercules, Calif.).
(§4) To translate the OD530 values into the number of live cells in each well, the OD530 values were compared to those on standard OD530-versus-cell number curves generated for each cell line. The percent survival was calculated using the formula: % Survival=live cell number [test]/live cell number [control]×100
(§5) The IC50 values were calculated by non-linear regression analysis.
(§6) The compounds were screened against at […] including PANC-1, MDA-MB-231, HCT116 and Caki-1, at approximately 1 μM concentration. The inhibition of cell growth (IC50, μM) of some tetrahydroisoquinolin-2-yl-(quinazolin-4-yl)methanone compounds are shown in Table 2.

[2] = test system: HCT116 (colon); experiment: SRB growth inhibition assay, HCT116; format: cell-based, Human; conditions: Homo sapiens, HCT-116, 96 hours incubation, read-out: Inhibition of cell growth (IC50, μM) HCT116
From the text: as §1, §2, §3, §4, §5, §6

[3] = test system: Caki-1 (kidney); experiment: SRB growth inhibition assay, Caki-1; format: cell-based, Human; conditions: Homo sapiens, CAKI-1, 96 hours incubation, read-out: Inhibition of cell growth (IC50, μM) Caki-1
From the text: as §1, §2, §3, §4, §5, §6

[4] = test system: PANC-1 (pancreas); experiment: SRB growth inhibition assay, PANC-1; format: cell-based, Human; conditions: Homo sapiens, PANC-1, 96 hours incubation, read-out: Inhibition of cell growth (IC50, μM) Panc-1
From the text: as §1, §2, §3, §4, §5, §6

[5] = test system: MKN-45 (stomach); experiment: SRB growth inhibition assay, MKN-45; format: cell-based; conditions: Homo sapiens, 96 hours incubation, read-out: Inhibition of cell growth (IC50, μM) MKN-45
From the text: as §1, §2, §3, §4, §5

[6] = test system: SK-MEL-28 (melanoma); experiment: SRB growth inhibition assay, SK-MEL-28; format: cell-based; conditions: Homo sapiens, 96 hours incubation, read-out: Inhibition of cell growth (IC50, μM) SK-MEL-28
From the text: as §1, §2, §3, §4, §5

[7] = test system: HeLa (cervix); experiment: SRB growth inhibition assay, HeLa; format: cell-based; conditions: Homo sapiens, 96 hours incubation, read-out: Inhibition of cell growth (IC50, μM) HeLa
From the text: as §1, §2, §3, §4, §5

[8] = test system: OVCAR-3 (ovary); experiment: SRB growth inhibition assay, OVCAR-3; format: cell-based; conditions: Homo sapiens, 96 hours incubation, read-out: Inhibition of cell growth (IC50, μM) Ovcar3
From the text: as §1, §2, §3, §4, §5

[9] = test system: U251 (brain); experiment: SRB growth inhibition assay, U251; format: cell-based; conditions: Homo sapiens, U-251, 96 hours incubation, read-out: Inhibition of cell growth (IC50, μM) U251
From the text: as §1, §2, §3, §4, §5

[10] = test system: HepG2 (liver); experiment: SRB growth inhibition assay, HepG2; format: cell-based; conditions: Homo sapiens, 96 hours incubation, read-out: Inhibition of cell growth (IC50, μM) HepG2
From the text: as §1, §2, §3, §4, §5

SMILES	IC50 [1]	IC50 [2]	IC50 [4]	IC50 [5]	IC50 [6]	IC50 [7]	IC50 [8]	IC50 [9]	IC50 [10]	IC50 [3]
COc1ccc2c(c1)CCN(C(=O)c1nc(-c3ccc(F)cc3)nc3ccccc13)C2 [Compound 7, 2-[[2-(4-fluorophenyl)quinazolin-4-yl]carbonyl]-6-methoxy-1,2,3,4-tetrahydroisoquinoline]	0.9 µM	1.1 µM	0.53 µM	0.19 µM	0.36 µM	0.24 µM	0.16 µM	0.64 µM	0.72 µM	0.61 µM
COc1ccc(-c2nc(C(=O)N3CCc4c(ccc(C)c4O)C3)c3ccccc3n2)cc1 [Compound 26, 2-[[2-(4-methoxylphenyl)quinazolin-4-yl]carbonyl]-5-hydroxy-6-methyl-1,2,3,4-tetrahydroisoquinoline]	0.19 µM	0.22 µM	0.18 µM							0.16 µM
COc1ccc2c(c1O)CCN(C(=O)c1nc(-c3ccc(Cl)cc3)nc3ccccc13)C2 [Compound 27, 2-[[2-(4-chlorophenyl)quinazolin-4-yl]carbonyl]-5-hydroxy-6-methoxy-1,2,3,4-tetrahydroisoquinoline]	0.54 µM	0.5 µM	0.42 µM							0.46 µM
Cc1ccc2c(c1O)CCN(C(=O)c1nc(-c3ccc(Cl)cc3)nc3ccccc13)C2 [Compound 31, 2-[[2-(4-chlorophenyl)quinazolin-4-yl]carbonyl]-5-hydroxy-6-methyl-1,2,3,4-tetrahydroisoquinoline]	0.63 µM	0.91 µM	0.85 µM							0.64 µM
COc1ccc2c(c1O)CCN(C(=O)c1nc(-c3ccc(N(C)C)cc3)nc3ccccc13)C2 [Compound 32, 2-[[2-(4-(dimethylamino)phenyl)quinazolin-4-yl]carbonyl]-5-hydroxy-6-methoxy-1,2,3,4-tetrahydroisoquinoline]	0.43 µM	0.52 µM	0.47 µM							0.37 µM
COc1ccc2c(c1O)CCN(C(=O)c1nc(-c3ccc(C(F)(F)F)cc3)nc3ccccc13)C2 [Compound 37, 2-[[2-(4-(trifluoromethyl)phenyl)quinazolin-4-yl]carbonyl]-5-hydroxy-6-methoxy-1,2,3,4-tetrahydroisoquinoline]	0.42 µM	0.55 µM	0.43 µM							0.36 µM
COc1cccc(-c2nc(C(=O)N3CCc4c(ccc(OC)c4O)C3)c3ccccc3n2)c1 [Compound 47, 2-[[2-(3-methoxylphenyl)quinazolin-4-yl]carbonyl]-5-hydroxy-6-methoxy-1,2,3,4-tetrahydroisoquinoline]	0.49 µM	0.81 µM	0.5 µM							0.59 µM
COc1ccc2c(c1O)CCN(C(=O)c1nc(-c3cccc(C(F)(F)F)c3)nc3ccccc13)C2 [Compound 52, 2-[[2-(3-(trifluoromethyl)phenyl)quinazolin-4-yl]carbonyl]-5-hydroxy-6-methoxy-1,2,3,4-tetrahydroisoquinoline]	1.62 µM	2.67 µM	2.51 µM							1.91 µM
Cc1ccc2c(c1O)CCN(C(=O)c1nc(-c3ccc(F)cc3F)nc3ccccc13)C2 [Compound 61, 2-[[2-(2,4-difluorophenyl)quinazolin-4-yl]carbonyl]-5-hydroxy-6-methyl-1,2,3,4-tetrahydroisoquinoline]	1.84 µM	2.76 µM	2.31 µM							2.47 µM
COc1ccc2c(c1O)CCN(C(=O)c1nc(-c3ccc(NC(C)=O)cc3)nc3ccccc13)C2 [Compound 62, 2-[[2-(4-acetamidophenyl)quinazolin-4-yl]carbonyl]-5-hydroxy-6-methoxy-1,2,3,4-tetrahydroisoquinoline]	0.2 µM	0.34 µM	0.21 µM							0.2 µM
CC(=O)Nc1ccc(-c2nc(C(=O)N3CCc4c(ccc(C)c4O)C3)c3ccccc3n2)cc1 [Compound 64, 2-[[2-(4-acetamidophenyl)quinazolin-4-yl]carbonyl]-5-hydroxy-6-methyl-1,2,3,4-tetrahydroisoquinoline]	0.52 µM	0.89 µM	0.68 µM							0.63 µM
COc1ccc2c(c1OC)CCN(C(=O)c1nc(-c3ccncn3)nc3ccccc13)C2 [Compound 72, 2-[[2-(4-pyrimidinyl)quinazolin-4-yl]carbonyl]-5,6-dimethoxy-1,2,3,4-tetrahydroisoquinoline]	0.46 µM	0.55 µM	0.49 µM							0.39 µM

Now from value to compound, other results behind:

IC50 [1]	IC50 [2]	IC50 [4]	IC50 [5]	IC50 [6]	IC50 [7]	IC50 [8]	IC50 [9]	IC50 [10]	SMILES	IC50 [3]
0.21 µM	0.26 µM	0.2 µM							Cc1ccc2c(c1O)CCN(C(=O)c1nc(-c3ccncn3)nc3ccccc13)C2 [Compound 73, 2-[[2-(4-pyrimidinyl)quinazolin-4-yl]carbonyl]-5-hydroxy-6-methyl-1,2,3,4-tetrahydroisoquinoline]	0.19 µM
0.17 µM	0.2 µM	0.17 µM							COc1ccc2c(c1O)CCN(C(=O)c1nc(-c3cscn3)nc3ccccc13)C2 [Compound 79, 2-[[2-(4-thiazolyl)quinazolin-4-yl]carbonyl]-5-hydroxy-6-methoxy-1,2,3,4-tetrahydroisoquinoline]	0.16 µM
1 µM	1.26 µM	1.43 µM							COc1ccc2c(c1OC)CCN(C(=O)c1nc(-c3cscn3)nc3ccccc13)C2 [Compound 81, 2-[[2-(4-thiazolyl)quinazolin-4-yl]carbonyl]-5,6-dimethoxy-1,2,3,4-tetrahydroisoquinoline]	1.21 µM
0.21 µM	0.29 µM	0.23 µM							Cc1ccc2c(c1O)CCN(C(=O)c1nc(-c3cscn3)nc3ccccc13)C2 [Compound 83, 2-[[2-(4-thiazolyl)quinazolin-4-yl]carbonyl]-5-hydroxy-6-methyl-1,2,3,4-tetrahydroisoquinoline]	0.25 µM
0.67 µM	1.12 µM	0.93 µM							Cc1ccc2c(c1O)CCN(C(=O)c1nc(-c3cccnc3)nc3ccccc13)C2 [Compound 88, 2-[[2-(3-pyridinyl)quinazolin-4-yl]carbonyl]-5-hydroxy-6-methyl-1,2,3,4-tetrahydroisoquinoline]	0.97 µM
0.16 µM	0.17 µM	0.13 µM	0.087 µM	0.11 µM	0.16 µM	0.073 µM	0.13 µM	0.18 µM	COc1ccc2c(c1O)CCN(C(=O)c1nc(-c3ccc(F)cc3)nc3ccc(F)cc13)C2 [Compound 97, 2-[[6-fluoro-2-(4-fluorophenyl)quinazolin-4-yl]carbonyl]-5-hydroxy-6-methoxy-1,2,3,4-tetrahydroisoquinoline]	0.11 µM
